Experiments:
human 5-HT1A receptor = target: T1, human 5-HT1A receptor (Homo sapiens, UniProt P08908); assay: 5-HT1A receptor binding assay with [3H]8-OH-DPAT on CHO cell membranes; conditions: @ 1000 nM, 5-HT1A.CHO cell membranes
T1 construct: expressed in transfected cells
T1 sequence (P08908 1-422): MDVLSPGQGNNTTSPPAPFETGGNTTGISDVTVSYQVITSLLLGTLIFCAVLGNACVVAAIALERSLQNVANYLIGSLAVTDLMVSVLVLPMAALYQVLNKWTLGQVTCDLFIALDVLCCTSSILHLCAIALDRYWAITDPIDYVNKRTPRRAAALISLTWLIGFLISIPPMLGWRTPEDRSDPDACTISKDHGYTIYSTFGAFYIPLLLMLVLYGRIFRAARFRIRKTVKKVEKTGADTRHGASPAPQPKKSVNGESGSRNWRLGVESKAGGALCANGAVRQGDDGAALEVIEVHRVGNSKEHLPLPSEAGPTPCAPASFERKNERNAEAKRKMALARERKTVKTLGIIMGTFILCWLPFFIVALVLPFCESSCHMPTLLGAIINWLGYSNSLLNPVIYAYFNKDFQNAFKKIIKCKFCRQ
Protocol: The PCR cloning of the human 5-HT1A receptor subtype from a human genomic library has been described previously by Chanda et al., Mol. Pharmacol., 43:516 (1993). A stable Chinese hamster ovary cell line expressing the human 5-HT1A receptor subtype (5-HT1A.CHO cells) was employed throughout this study. Cells were maintained in DMEM supplemented with 10% fetal calf serum, non-essential amino acids and penicillin/ streptomycin.
Cells were grown to 95-100% confluency as a monolayer before membranes were harvested for binding studies. Cells were gently scraped from the culture plates, transferred to centrifuge tubes, and washed twice by centrifugation (2000 rpm for 10 min., 4°C) in buffer (50 mM Tris; pH 7.5). The resulting pellets were aliquoted and maintained at -80•C. On the day of assay, the cells were thawed on ice, and resuspended in buffer. Studies were conducted using [^3H]8-OH-DPAT as the radioligand. The binding assay was performed in 96 well microtiter plates in a final total volume of 250 µL of buffer. Comparison experiments werc performed by using 7 concentrations of unlabelled drug and a final ligand concentration of 1.5 nM. Nonspecific binding was determined in the presence of 10 µM 5HT. Saturation analysis was conducted by using [^3H]8-OH-DPAT at concentrations ranging from 0.3-30 nM. […]

serotonin transporter = target: T2, serotonin transporter (Rattus norvegicus, UniProt P31652); assay: Serotonin transporter binding assay with 3H-paroxetine on frontal cortical membranes; design: species or system male Sprague-Dawley rats
T2 construct: frontal cortical membranes prepared from male Sprague-Dawley rats; from tissue; host or cells: frontal cortex of male Sprague-Dawley rats (membranes)
T2 sequence (P31652 whole entry): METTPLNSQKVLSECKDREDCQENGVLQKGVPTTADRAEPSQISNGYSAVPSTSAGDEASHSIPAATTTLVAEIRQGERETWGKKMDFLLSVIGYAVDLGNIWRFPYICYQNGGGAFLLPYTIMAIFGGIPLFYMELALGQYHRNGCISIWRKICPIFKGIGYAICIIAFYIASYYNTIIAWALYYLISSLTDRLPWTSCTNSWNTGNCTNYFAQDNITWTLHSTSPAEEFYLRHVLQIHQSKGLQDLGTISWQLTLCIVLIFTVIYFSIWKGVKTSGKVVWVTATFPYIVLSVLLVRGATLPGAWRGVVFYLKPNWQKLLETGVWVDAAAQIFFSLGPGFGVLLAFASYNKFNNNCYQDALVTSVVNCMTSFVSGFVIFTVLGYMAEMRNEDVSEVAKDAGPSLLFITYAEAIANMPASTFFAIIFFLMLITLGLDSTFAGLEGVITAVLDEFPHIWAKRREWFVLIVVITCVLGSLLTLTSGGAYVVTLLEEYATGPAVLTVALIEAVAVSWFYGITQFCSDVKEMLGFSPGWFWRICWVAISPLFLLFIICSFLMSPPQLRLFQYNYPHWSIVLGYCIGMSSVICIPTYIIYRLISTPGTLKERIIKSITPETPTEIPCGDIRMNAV
Protocol: A protocol similar to that used by Cheetham et al., Neuropharmacol., 32:737 (1993) was used to determine the affinity of compounds for the serotonin transporter. Briefly, frontal cortical membranes prepared from male Sprague-Dawley rats were incubated with ^3H-paroxetine (0.1 nM) for 60 min at 25°C. All tubes also contained either vehicle, test compound (one to eight concentrations), or a saturating concentration of fluoxetine (10 µM) to define […]. All reactions were terminated by the addition of ice cold Tris buffer followed by rapid filtration using a Tom Tech filtration device to separate bound from free ^3H-paroxetine. Bound radioactivity was quantitated using a Wallac 1205 Beta Plate® counter. Nonlinear regression analysis was used to determine IC50 values which were converted to Ki values using the method set forth in Cheng and Prusoff, Biochem. Pharmacol., 22:3099 (1973) ([…].

COc1ccsc1C1=CCN([C@H]2CC[C@@H](c3c[nH]c4ccc(F)cc43)CC2)CC1 [Example 1, 5-Fluoro-3-{(1,4-cis)-4-[4-(3-methoxy-thiophen-2-yl)-3,6-dihydro-2H-pyridin-1-yl]-cyclohexyl}-1H-indole]
5-HT1A (Ki, nM) (human 5-HT1A receptor): 48% @ 1000 nM
Ki (serotonin transporter): 2.5 nM

COc1ccsc1C1=CCN([C@H]2CC[C@H](c3c[nH]c4ccc(F)cc43)CC2)CC1 [Example 2, 5-Fluoro-3-{(1,4-trans)-4-[4-(3-methoxy-thiophen-2-yl)-3,6-dihydro-2H-pyridin-1-yl]-cyclohexyl}-1H-indole]
ST (Ki, nM,) (serotonin transporter; @ 100 nM, 3H-paroxetine, rat frontal cortical membranes): 18% @ 100 nM

— EP1140919B1, “1,4-DISUBSTITUTED CYCLOHEXANE DERIVATIVES FOR THE TREATMENT OF DEPRESSION” (Wyeth, priority 1999, dated 2000)
